Experimental data reported in PubChem BioAssay (NCI).
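Assay format: 96-well plates, 48-hour exposure. GI50 marks 50% less growth. TGI marks complete inhibition of growth.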 Where a SMILES comes first, the peptide text is derived from it. The star is where a group is joined. Boc = CC(C)(C)OC(=O)*; OBn = c1ccc(CO*)cc1

How the values were obtained:
Test in all cases: growth of human tumour cells (NCI), 48 h
OVCAR-4 ovarian = test system: OVCAR-4 ovarian
IGROV1 ovarian = test system: IGROV1 ovarian
LOX IMVI melanoma = test system: LOX IMVI melanoma
OVCAR-3 ovarian = test system: OVCAR-3 ovarian
NCI/ADR-RES ovarian = test system: NCI/ADR-RES ovarian
SK-MEL-5 melanoma = test system: SK-MEL-5 melanoma
NCI-H23 lung = test system: NCI-H23 lung
DU-145 prostate = test system: DU-145 prostate
T-47D breast = test system: T-47D breast
NCI-H460 lung = test system: NCI-H460 lung

## O=S(=O)(/N=C(\NO)Nc1ccc(Cl)cc1)C1CC=C(c2ccon2)S1 (stereo unspecified)
OVCAR-4 ovarian
  TGI: > 100 µM
IGROV1 ovarian
  TGI: > 72.3 µM
LOX IMVI melanoma
  TGI: > 100 µM
OVCAR-3 ovarian
  TGI: > 100 µM
NCI/ADR-RES ovarian
  TGI: > 100 µM
SK-MEL-5 melanoma
  TGI: > 62.1 µM
NCI-H23 lung
  TGI: > 100 µM
DU-145 prostate
  TGI: > 100 µM
T-47D breast
  TGI: > 100 µM
NCI-H460 lung
  TGI: > 65.8 µM

## CC(=O)OC1[C@H](n2ccnc2)C[C@H]2[C@@H]3CC=C4CC(N5CCCC5)CC[C@]4(C)[C@H]3CC[C@]12C (stereo partly specified)
OVCAR-4 ovarian
  TGI: > 100 µM
IGROV1 ovarian
  TGI: > 100 µM
LOX IMVI melanoma
  TGI: 38.1 µM
OVCAR-3 ovarian
  TGI: > 100 µM
NCI/ADR-RES ovarian
  TGI: > 100 µM
SK-MEL-5 melanoma
  TGI: > 100 µM
NCI-H23 lung
  TGI: > 100 µM
DU-145 prostate
  TGI: > 100 µM
NCI-H460 lung
  TGI: > 100 µM

## NC(=O)SCC(=O)Nc1ccc2ncccc2c1
OVCAR-4 ovarian
  TGI: > 100 µM
IGROV1 ovarian
  TGI: > 100 µM
LOX IMVI melanoma
  TGI: > 100 µM
OVCAR-3 ovarian
  TGI: > 100 µM
NCI/ADR-RES ovarian
  TGI: > 100 µM
SK-MEL-5 melanoma
  TGI: > 100 µM
NCI-H23 lung
  TGI: > 100 µM
NCI-H460 lung
  TGI: > 100 µM

## Cc1ccc([N+](=O)[O-])cc1S(=O)(=O)Nc1ccc(C2=NN(S(=O)(=O)c3cc([N+](=O)[O-])ccc3C)C(c3ccco3)C2)cc1 (stereo unspecified)
OVCAR-4 ovarian
  TGI: > 100 µM
IGROV1 ovarian
  TGI: > 100 µM
LOX IMVI melanoma
  TGI: > 100 µM
OVCAR-3 ovarian
  TGI: > 100 µM
NCI/ADR-RES ovarian
  TGI: > 100 µM
SK-MEL-5 melanoma
  TGI: > 100 µM
NCI-H23 lung
  TGI: > 100 µM
DU-145 prostate
  TGI: > 100 µM
T-47D breast
  TGI: 92.9 µM

## Cc1nc2cccc([N+](=O)[O-])c2n1CCCN(C)C
OVCAR-4 ovarian
  TGI: > 100 µM
IGROV1 ovarian
  TGI: > 100 µM
LOX IMVI melanoma
  TGI: > 100 µM
OVCAR-3 ovarian
  TGI: > 100 µM
NCI/ADR-RES ovarian
  TGI: > 100 µM
SK-MEL-5 melanoma
  TGI: > 100 µM
NCI-H23 lung
  TGI: > 100 µM
DU-145 prostate
  TGI: > 100 µM
T-47D breast
  TGI: > 100 µM
NCI-H460 lung
  TGI: > 100 µM

## COC1=CC(=O)NCCN1
OVCAR-4 ovarian
  TGI: > 100 µM
IGROV1 ovarian
  TGI: > 100 µM
LOX IMVI melanoma
  TGI: 45.2 µM
OVCAR-3 ovarian
  TGI: > 100 µM
SK-MEL-5 melanoma
  TGI: > 100 µM
NCI-H23 lung
  TGI: > 100 µM
NCI-H460 lung
  TGI: 85.9 µM

## COC(=O)C1=COc2c(n(C)c3ccccc23)-c2ccccc21
IGROV1 ovarian
  TGI: > 100 µM
LOX IMVI melanoma
  TGI: > 100 µM
OVCAR-3 ovarian
  TGI: > 100 µM
NCI/ADR-RES ovarian
  TGI: > 100 µM
SK-MEL-5 melanoma
  TGI: > 100 µM
NCI-H23 lung
  TGI: > 100 µM
DU-145 prostate
  TGI: > 100 µM
T-47D breast
  TGI: > 100 µM
NCI-H460 lung
  TGI: > 100 µM

## CC(C)CC(NC(=O)C(Cc1ccccc1)NC(=O)C(Cc1ccccc1)NC(=O)OC(C)(C)C)C(=O)OCc1ccccc1 (stereo not drawn) (Boc-Phe-Phe-Leu-OBn; configuration not given here)
IGROV1 ovarian
  TGI: > 100 µM
LOX IMVI melanoma
  TGI: > 100 µM
OVCAR-3 ovarian
  TGI: > 100 µM
NCI/ADR-RES ovarian
  TGI: > 100 µM
SK-MEL-5 melanoma
  TGI: > 100 µM
NCI-H23 lung
  TGI: > 100 µM
DU-145 prostate
  TGI: > 100 µM
T-47D breast
  TGI: > 100 µM

## O=C1CCCC2=C1CC1=C(CCCC1=O)N2c1cccc([N+](=O)[O-])c1
OVCAR-4 ovarian
  TGI: > 100 µM
IGROV1 ovarian
  TGI: > 100 µM
LOX IMVI melanoma
  TGI: > 100 µM
OVCAR-3 ovarian
  TGI: > 100 µM
NCI/ADR-RES ovarian
  TGI: > 100 µM
SK-MEL-5 melanoma
  TGI: > 100 µM
NCI-H23 lung
  TGI: > 100 µM
NCI-H460 lung
  TGI: > 100 µM

## CCN(CC)CCNC(=O)c1nn(-c2ccc(Cl)cc2)c2c1CCc1cc(OC)ccc1-2
OVCAR-4 ovarian
  TGI: 21.9 µM
IGROV1 ovarian
  TGI: 26.6 µM
LOX IMVI melanoma
  TGI: 4.11 µM
OVCAR-3 ovarian
  TGI: 20.6 µM
SK-MEL-5 melanoma
  TGI: 3.17 µM
NCI-H23 lung
  TGI: 25.8 µM
DU-145 prostate
  TGI: 29.1 µM
T-47D breast
  TGI: 21 µM
NCI-H460 lung
  TGI: 11.8 µM

## Cc1nnc([C@@]2(C)CC[C@H]3[C@@H](CCC4=CC(=O)CC[C@@]43C)[C@@H]2CC#N)o1
OVCAR-4 ovarian
  TGI: > 100 µM
IGROV1 ovarian
  TGI: > 100 µM
LOX IMVI melanoma
  TGI: > 100 µM
OVCAR-3 ovarian
  TGI: > 100 µM
NCI/ADR-RES ovarian
  TGI: > 100 µM
SK-MEL-5 melanoma
  TGI: > 100 µM
NCI-H23 lung
  TGI: > 100 µM

## O=[N+]([O-])c1ccc(COc2cccc3cccnc23)cc1
OVCAR-4 ovarian
  TGI: 36.7 µM
IGROV1 ovarian
  TGI: 67.7 µM
LOX IMVI melanoma
  TGI: 29.2 µM
OVCAR-3 ovarian
  TGI: > 100 µM
SK-MEL-5 melanoma
  TGI: 58.4 µM
NCI-H23 lung
  TGI: > 100 µM
NCI-H460 lung
  TGI: 17.2 µM

## O=C(c1ccccc1)c1nn(-c2ccccc2)c2nc3nc(-c4ccccc4)cc(=O)n3nc12
OVCAR-4 ovarian
  GI50: 22.9 µM
  TGI: 68.4 µM
IGROV1 ovarian
  GI50: 25.6 µM
  TGI: > 100 µM
LOX IMVI melanoma
  GI50: 25.8 µM
  TGI: 78.7 µM
OVCAR-3 ovarian
  GI50: 19.9 µM
  TGI: 49.5 µM
NCI/ADR-RES ovarian
  GI50: 26.2 µM
  TGI: 74.5 µM
SK-MEL-5 melanoma
  GI50: 13.6 µM
  TGI: 27.1 µM
NCI-H23 lung
  GI50: 33.1 µM
  TGI: > 100 µM
DU-145 prostate
  GI50: 23.8 µM
  TGI: 58.2 µM
T-47D breast
  GI50: 28.9 µM
  TGI: 99.5 µM

## O=[N+]([O-])c1ccc(O)c(C=NCC2CCCN3CCCCC23)c1 (stereo unspecified)
IGROV1 ovarian
  TGI: > 100 µM
LOX IMVI melanoma
  TGI: > 100 µM
OVCAR-3 ovarian
  TGI: > 100 µM
NCI/ADR-RES ovarian
  TGI: > 100 µM
SK-MEL-5 melanoma
  TGI: 69.9 µM
NCI-H23 lung
  TGI: > 100 µM
DU-145 prostate
  TGI: > 100 µM
NCI-H460 lung
  TGI: > 100 µM

## CCN(CC)CC(=O)Nc1ccc2c(c1)C(=O)c1ccc(NC(=O)CN(CC)CC)cc1C2=O
OVCAR-4 ovarian
  TGI: > 100 µM
IGROV1 ovarian
  TGI: 51.6 µM
LOX IMVI melanoma
  TGI: 34.5 µM
SK-MEL-5 melanoma
  TGI: 48.9 µM
NCI-H23 lung
  TGI: > 100 µM
NCI-H460 lung
  TGI: 31.5 µM

## CN=C(NC)N(C)c1nc(=[N+](C)C)ss1
IGROV1 ovarian
  TGI: > 100 µM
LOX IMVI melanoma
  TGI: > 100 µM
OVCAR-3 ovarian
  TGI: > 100 µM
SK-MEL-5 melanoma
  TGI: > 100 µM
NCI-H23 lung
  TGI: > 100 µM
NCI-H460 lung
  TGI: > 100 µM

## CC(=O)OCCOCCN1CCN(c2c(O)c3c(c(O)c2Cl)C(=O)C=CC3=O)CC1
OVCAR-4 ovarian
  TGI: 1.32 µM
IGROV1 ovarian
  TGI: 3.04 µM
LOX IMVI melanoma
  TGI: 1.66 µM
OVCAR-3 ovarian
  TGI: 2 µM
NCI/ADR-RES ovarian
  TGI: 1.21 µM
SK-MEL-5 melanoma
  TGI: 2.97 µM
NCI-H23 lung
  TGI: 1.98 µM
DU-145 prostate
  TGI: 3.29 µM
T-47D breast
  TGI: 2.77 µM

## C=CCN1C[C@@H](C)N([C@@H](c2ccc(C(=O)N(CC)CC)cc2)c2cccc(OC)c2)C[C@@H]1C
OVCAR-4 ovarian
  TGI: > 100 µM
IGROV1 ovarian
  TGI: > 100 µM
LOX IMVI melanoma
  TGI: > 100 µM
OVCAR-3 ovarian
  TGI: > 100 µM
NCI/ADR-RES ovarian
  TGI: > 100 µM
SK-MEL-5 melanoma
  TGI: > 100 µM
NCI-H23 lung
  TGI: > 100 µM
DU-145 prostate
  TGI: > 100 µM
T-47D breast
  TGI: > 100 µM

## COc1ccc2c(c1)CCN1C3=C(CCC3)C(=O)C[C@@H]21
OVCAR-4 ovarian
  TGI: > 100 µM
IGROV1 ovarian
  TGI: > 100 µM
LOX IMVI melanoma
  TGI: > 100 µM
OVCAR-3 ovarian
  TGI: > 100 µM
SK-MEL-5 melanoma
  TGI: > 100 µM
NCI-H23 lung
  TGI: > 100 µM
NCI-H460 lung
  TGI: > 100 µM

## NC(C(=O)OC(=O)c1ccccc1)C(=O)OC(=O)c1ccccc1
OVCAR-4 ovarian
  TGI: > 100 µM
LOX IMVI melanoma
  TGI: > 100 µM
OVCAR-3 ovarian
  TGI: > 100 µM
NCI/ADR-RES ovarian
  TGI: > 100 µM
SK-MEL-5 melanoma
  TGI: > 100 µM
NCI-H23 lung
  TGI: > 100 µM
DU-145 prostate
  TGI: > 100 µM
T-47D breast
  TGI: > 100 µM
NCI-H460 lung
  TGI: > 100 µM

## O=C1CCCC[C@H]1C(O)CC1CC(=O)N(c2ccccc2)C(=O)C1 (stereo partly specified)
OVCAR-4 ovarian
  TGI: > 100 µM
IGROV1 ovarian
  TGI: > 100 µM
LOX IMVI melanoma
  TGI: > 100 µM
OVCAR-3 ovarian
  TGI: > 100 µM
NCI/ADR-RES ovarian
  TGI: > 100 µM
SK-MEL-5 melanoma
  TGI: > 100 µM
NCI-H23 lung
  TGI: > 100 µM
DU-145 prostate
  TGI: > 100 µM
NCI-H460 lung
  TGI: > 100 µM

## CCCCc1c2c(nc3c1CC/C(=C\c1ccc([N+](=O)[O-])cc1)C3=O)CCCC2
IGROV1 ovarian
  TGI: 3.24 µM
LOX IMVI melanoma
  TGI: 3.05 µM
OVCAR-3 ovarian
  TGI: 3.14 µM
NCI-H460 lung
  TGI: 2.92 µM

## Cc1cc(C)c(C(=O)/C=C/c2ccccc2)c(C)c1
OVCAR-4 ovarian
  TGI: 81.6 µM
IGROV1 ovarian
  TGI: > 100 µM
SK-MEL-5 melanoma
  TGI: > 100 µM
NCI-H23 lung
  TGI: 97.9 µM
NCI-H460 lung
  TGI: 39.3 µM
